Test results from publication PMC11204762, “Purification and Structural Analyses of Sulfated Polysaccharides from Low-Value Sea Cucumber Stichopus naso and Anticoagulant Activities of Its Oligosaccharides” (Marine Drugs, 2024).
Several values for one entry are separate records, joined by “and”; a condition that tells them apart may be missing. Equal entries are not always repeated.

Legend:
[1] = test system: intrinsic coagulation pathway (APTT of human plasma); assay: Anticoagulant activity: APTT with a coagulometer, APTT reagent and standard human plasma; format: biochemical; details: for 2APTT: concentration required to double the APTT of human plasma (EC2.0×): standard human plasma, EC2.0× ± SD (n = 2)
Method: The anticoagulant activities of natural SnFG and its oligosaccharides 3, 4, 5, and 6 were assessed using a coagulometer (TECO, MC-2000) using APTT reagents and standard human plasma, according to a previous method. Briefly, 5 μL of a series of concentrations of the samples was added to a standard preheated to 37 °C and another 45 μL of standard human plasma was added for co-incubation at 37 °C for 2 min, followed by the addition of 50 μL of APTT reagent for incubation for another 3 min. Subsequently, 50 μL of CaCl2 (0.02 M) was added and the timer was started.
(§1) Activities of natural HfFG (FG from H. fuscopunctata) and its oligosaccharides oHG-8, oHG-11, oHG-14, and oHG-17 were simultaneously detected for comparison.

[2] = target: T1, intrinsic factor Xase complex (iXase, VIIIa-IXa-PL-Ca2+ complex) (Homo sapiens, UniProt P00740); assay: Inhibition of iXase: chromogenic substrate assay, BIOPHEN FVIII:C kit and recombinant human factor VIII; format: biochemical; details: IC50 ± SE (n = 2)
T1 construct: intrinsic factor Xase complexes (iXase, VIIIa-IXa-PL-Ca^2+ complex); purchased BIOPHEN FVIII:C (assay kit)
T1 sequence (P00740 47-191 limits assumed): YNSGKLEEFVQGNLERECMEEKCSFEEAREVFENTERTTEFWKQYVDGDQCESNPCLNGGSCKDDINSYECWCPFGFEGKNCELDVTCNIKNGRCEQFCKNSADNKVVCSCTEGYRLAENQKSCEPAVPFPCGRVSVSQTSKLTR
T1 sequence (P00740 227-461 limits assumed): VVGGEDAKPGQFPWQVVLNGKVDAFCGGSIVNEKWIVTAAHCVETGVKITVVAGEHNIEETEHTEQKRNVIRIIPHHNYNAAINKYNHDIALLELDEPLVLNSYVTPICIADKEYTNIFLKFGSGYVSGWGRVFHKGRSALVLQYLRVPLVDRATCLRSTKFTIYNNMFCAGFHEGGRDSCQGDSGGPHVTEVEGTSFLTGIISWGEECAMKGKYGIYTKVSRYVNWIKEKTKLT
Method: Inhibition of iXase was assessed using the chromogenic substrate assay and the FVIII assay kit BIOPHEN FVIII:C: containing R1 (FX), R2 (Activation Reagent), and R3 (SXa-11) and recombinant human factor VIII (FVIII). A total of 30 μL of each sample was added to the 96-well plate, followed by 30 μL of R2 and 30 μL of FVIII solution (2 IU/mL), and the place was placed in the microplate reader. The plates were mixed and incubated at 37 °C for 2 min. Then, 30 μL of R1 was added to mix and incubated at 37 °C for 1 min, and finally, 30 μL of R3 was added. The absorbance value at 405 nm (OD405nm) was recorded via a microplate reader, and continuous reading was performed for 2min at 15 s intervals. The experiments were performed in duplicate. The average value of OD405nm was linearly fitted to time, and the slope (the rate of change in absorbance value ΔOD405nm/min) corresponded to the iXase activity.
as §1

| Substance | fold stronger than oHG-8 in APTT prolongation (EC2.0×) ([1]; EC2.0× 20.94 vs. 32.35 μg/mL) | 2APTT: concentration required to double the APTT of human plasma (EC2.0×) [1] | Anti-iXase: concentration required to inhibit 50% Xase activity (IC50) [2] [µg/mL] |
| --- | --- | --- | --- |
| L-Fuc2S4S-α(1,3)-L-Δ^4,5HexA-α(1,3)-D-GalNAc4S6S-β(1,4)-[L-Fuc2S4S-α(1,3)]-D-GlcA-β(1,3)-D-GalNAc4S6S-β(1,4)-[L-Fuc2S4S-α(1,3)]-D-GlcA-ol [compound 3] | about 1.5 fold | 20.94 µg/mL and 20.94 ± 0.27 µg/mL | 0.335 ± 0.02473 |
| enoxaparin [LMWH, reference compound] | – | 7.46 ± 0.02 µg/mL | 0.08444 ± 0.00799 |
